26 compounds from US20160083400A1, “TRICYCLIC GUANIDINE DERIVATIVE” (Sunovion Pharmaceuticals Inc., priority 2014, published 2016) can be followed below.

For this assay, the target named is PDE1B (Homo sapiens, UniProt Q01064). Briefly: In vitro HTRF PDE1 inhibition assay (PDE1B). The assay is classed as biochemical. Particulars: 100 nM cyclic GMP, calmodulin, 45 minutes at 37° C.

A value given as a limit tells only on which side of the number the result lay.

Sequence of PDE1B (Q01064 whole entry): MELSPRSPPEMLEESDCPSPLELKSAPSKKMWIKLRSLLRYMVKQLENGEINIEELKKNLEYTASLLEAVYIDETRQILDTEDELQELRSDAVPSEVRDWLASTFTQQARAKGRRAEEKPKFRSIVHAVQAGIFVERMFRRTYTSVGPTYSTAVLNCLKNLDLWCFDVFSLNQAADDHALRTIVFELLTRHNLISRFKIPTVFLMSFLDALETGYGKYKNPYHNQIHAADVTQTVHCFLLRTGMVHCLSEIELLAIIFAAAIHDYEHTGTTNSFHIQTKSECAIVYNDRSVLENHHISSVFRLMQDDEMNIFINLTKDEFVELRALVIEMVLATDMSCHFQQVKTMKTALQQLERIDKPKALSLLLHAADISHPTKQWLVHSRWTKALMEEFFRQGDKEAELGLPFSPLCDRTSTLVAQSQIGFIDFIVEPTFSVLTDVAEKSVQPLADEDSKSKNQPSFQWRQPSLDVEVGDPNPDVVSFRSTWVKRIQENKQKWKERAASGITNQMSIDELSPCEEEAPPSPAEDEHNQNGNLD
Description: The HTRF PDE1 assay utilized the HTRF technology, which is based on the competition between unlabeled cyclic nucleotide and cyclic nucleotide labeled with XL665 for the binding to cyclic nucleotide-specific antibody labeled with cryptate. The HTRF signal is thus inversely proportional to the concentration of cyclic nucleotide being measured. Since phosphodiesterases break down cyclic nucleotides the HTRF signal was used to determine PDE activity.
The Cisbio cGMP HTRF assay kit (Cat no: 62GM2PEC) was utilized. Cyclic GMP was diluted to 200 nM in HTRF assay buffer (1 mM CaCl2, 10 mM MgCl2, 10 mM Tris-HCl, 0.1% BSA, pH7.4). […] PDE (1A3, 1B or 1C) was diluted to 2× working concentration in HTRF assay buffer with 4 μg/ml Calmodulin, and 10 μl was added to initiate the reaction. The plate was then incubated for 45 minutes at 37° C. d2-Labelled cyclic GMP and anti-cGMP cryptate were diluted in 50 mM phosphate buffer, 0.8M KF, 1% Triton X100, 0.2% BSA, pH7.0. Following incubation 10 μl d2-cGMP, then 10 μl anti cGMP cryptate were added to each well and the plate was incubated for 45 minutes at rt. The plate was then read on Perkin Elmer Victor at 2 different FRET readings ex/emm 340 nm/665 nm and 340 nm/615 nm.

With `O=c1c2noc(C3CCOCC3)c2nc2n1CC[C@H](c1ccc(Cl)cc1)N2` [Example 155], the IC50 lay in the range of 1 to 10 µM.
In the case of `N#Cc1ccc(C2CCn3c(nc4c(C5CCOCC5)onc4c3=O)N2)cc1` (centres unmarked) [Example 156], the 50% inhibitory concentration (IC50) lay within 10 to 100 µM.
`CC(C)c1onc2c(=O)n3c(nc12)NC(c1ccc(C#N)cc1)CC3` (centres unmarked) [Example 157] showed an IC50 of 1 to 10 µM.
For the compound `CC(C)c1onc2c(=O)n3c(nc12)NC(c1cccc(Cl)c1)CC3` (centres unmarked) [Example 158], the IC50 is 1 to 10 µM.
Regarding `O=c1c2noc(C3CCOCC3)c2nc2n1CCC(c1cccc(Cl)c1)N2` (centres unmarked) [Example 159], the IC50 was 10 to 100 µM.
Take `CC(C)Cc1ncc2c(=O)n3c(nn12)N[C@@H](c1ccc(Cl)cc1)CC3` [Example 166]: the IC50 was below 1 µM.
As for `CCCc1ncc2c(=O)n3c(nn12)N[C@@H](c1ccc(Cl)cc1)CC3` [Example 167], the IC50 was below 1 µM.
In the case of `O=c1c2ccnc(C3CCOCC3)c2nc2n1CCC(c1ccc(Cl)cc1)N2` (centres unmarked) [Example 172], the IC50 was 1 to 10 µM.
For `CC(C)c1nccc2c(=O)n3c(nc12)NC(c1ccc(Cl)cc1)CC3` (centres unmarked) [Example 173], the half-inhibitory concentration (IC50) was below 1 µM.
On to `O=c1c2cnc(C3CCOCC3)n2nc2n1CCC1(CCc3ccccc31)N2` (centres unmarked) [Example 177, 9-(Tetrahydro-2H-pyran-4-yl)-2′,3,3′,4-tetrahydro-1H,6H-spiro[imidazo[5,1-f]pyrimido[2,1-c][1,2,4]triazine-2,1′-inden]-6-one], for which the IC50 was in the range of 1 to 10 µM.
Consider `O=c1c2cnc(C3CCOCC3)n2nc2n1CCC1(CCCc3ccccc31)N2` (centres unmarked) [Example 180], for which the IC50 was 1 to 10 µM.
In turn, `CC(C)c1ncc2c(=O)n3c(nn12)NC(c1ccc(Cl)nc1)C3` (centres unmarked) [Example 181, 2-(6-Chloro-3-pyridinyl)-8-isopropyl-2,10-dihydro-3H,5H-diimidazo[2,1-c:5′,1′-f][1,2,4]triazin-5-one] came in with an IC50 below 1 µM.
For `O=c1c2cnc(C3CCOCC3)n2nc2n1CC(c1ccc(Cl)nc1)N2` (centres unmarked) [Example 183], the IC50 was below 1 µM.
With `O=c1c2cnc(C3CCOCC3)n2nc2n1CC(c1ccc(F)nc1)N2` (centres unmarked) [Example 184], the IC50 was 1 to 10 µM.
For the compound `O=C1c2cnc([C@@H]3CCOC3)n2NC2=N[C@@H](c3ccc(Cl)cc3)CN12` [Example 185, (2S)-2-(4-Chlorophenyl)-8-[(3S)-tetrahydro-3-furanyl]-2,10-dihydro-3H,5H-diimidazo[2,1-c:5′,1′-f][1,2,4]triazin-5-one], the half-inhibitory concentration (IC50) was below 1 µM.
`O=C1c2cnc([C@H]3CCOC3)n2NC2=N[C@@H](c3ccc(Cl)cc3)CN12` [Example 186, (2S)-2-(4-Chlorophenyl)-8-[(3R)-tetrahydro-3-furanyl]-2,10-dihydro-3H,5H-diimidazo[2,1-c:5′,1′-f][1,2,4]triazin-5-one] yielded an IC50 below 1 µM.
`CO[C@H]1CC[C@@H](c2ncc3c(=O)n4c(nn32)N[C@@H](c2ccc(Cl)cc2)CC4)CC1` [Example 236] registered an IC50 of 1 to 10 µM.
In the case of `O=c1c2cnc(CO)n2nc2n1CC[C@H](c1ccc(Cl)cc1)N2` [Example 237], the IC50 fell in the range of 1 to 10 µM.
In the case of `COC(C)(C)c1ncc2c(=O)n3c(nn12)N[C@@H](c1ccc(Cl)cc1)CC3` [Example 240] it was below 1 µM; in that of `C=C(C)c1ncc2c(=O)n3c(nn12)N[C@@H](c1ccc(Cl)cc1)CC3` [Example 241], below 1 µM; in that of `O=c1c2cnc(C3CC=CCC3)n2nc2n1CC[C@H](c1ccc(Cl)cc1)N2` (some centres unmarked) [Example 243], below 1 µM.
Regarding `COCc1ncc2c(=O)n3c(nn12)N[C@@H](c1ccc(Cl)cc1)CC3` [Example 244], the IC50 was below 1 µM.
Regarding `CC1(c2ncc3c(=O)n4c(nn23)N[C@@H](c2ccc(Cl)cc2)CC4)CCCC1` [Example 245], the IC50 was below 1 µM.
As for `O=c1c2cnc(C(F)(F)F)n2nc2n1CC[C@H](c1ccc(Cl)cc1)N2` [Example 246], the half-maximal inhibitory concentration (IC50) was in the range of 1 to 10 µM.
For `O=c1c2cnc(CC3CC3)n2nc2n1CC[C@H](c1ccc(Cl)cc1)N2` [Example 247], the concentration for half-maximal inhibition (IC50) is below 1 µM.
In the case of `C=Cc1ncc2c(=O)n3c(nn12)N[C@@H](c1ccc(Cl)cc1)CC3` [Example 248] it was 1 to 10 µM.
